According to patent publication US5786348A, “Methods for preparation and use of 1α,24(S)-dihydroxy vitamin D2” (priority 1995, dated 1998):

Columns and labels:
[1] = Dose ranging study in postmenopausal osteoporotic women; format: in vivo, human; conditions: oral 0.5 to 8.0 μg/day, rising weekly over five weeks
Procedure: Twenty postmenopausal osteoporotic women are enrolled in an open label study.
On admission to the study, all patients receive instruction on selecting a daily diet containing 400 to 600 mg of calcium. Compliance to this diet is verified at weekly intervals by 24-hour food records and by interviews with each patient.
All patients complete a one-week baseline period, a five-week treatment period, and a one-week post-treatment observation period. During the treatment period, patients orally self-administer 1α,24(S)-dihydroxyvitamin D2 at an initial dose of 0.5 μg/day for the first week, and at successively higher doses of 1.0, 2.0, 4.0, and 8.0 μg/day in each of the following four weeks. All doses are administered before breakfast.
Blood and urine chemistries are monitored on a weekly basis throughout the study. Key blood chemistries include fasting serum levels of calcium, phosphorus, osteocalcin, creatinine, and blood urea nitrogen. Key urine chemistries include 24-hour excretion of calcium, phosphorus, and creatinine.

[2] = Prophylaxis of postmenopausal bone loss in healthy postmenopausal women; format: in vivo, human
Procedure: A clinical study is conducted with healthy postmenopausal women having ages between 55 and 60 years. The study involves up to 80 patients randomly divided into two treatment groups, and continues for 24 to 36 months. One treatment group receives a constant dosage of 1α,24(S)-dihydroxy vitamin D2 (u.i.d.; a dose level at or above 1.0 μg/day) and the other receives a matching placebo. The study is conducted as indicated in Example 12 above.

[3] = target: T1, vitamin D serum binding protein (DBP) (Rattus norvegicus, UniProt P04276); assay: Binding to vitamin D serum binding protein in vitamin D deficient rat serum
T1 sequence (P04276 17-476): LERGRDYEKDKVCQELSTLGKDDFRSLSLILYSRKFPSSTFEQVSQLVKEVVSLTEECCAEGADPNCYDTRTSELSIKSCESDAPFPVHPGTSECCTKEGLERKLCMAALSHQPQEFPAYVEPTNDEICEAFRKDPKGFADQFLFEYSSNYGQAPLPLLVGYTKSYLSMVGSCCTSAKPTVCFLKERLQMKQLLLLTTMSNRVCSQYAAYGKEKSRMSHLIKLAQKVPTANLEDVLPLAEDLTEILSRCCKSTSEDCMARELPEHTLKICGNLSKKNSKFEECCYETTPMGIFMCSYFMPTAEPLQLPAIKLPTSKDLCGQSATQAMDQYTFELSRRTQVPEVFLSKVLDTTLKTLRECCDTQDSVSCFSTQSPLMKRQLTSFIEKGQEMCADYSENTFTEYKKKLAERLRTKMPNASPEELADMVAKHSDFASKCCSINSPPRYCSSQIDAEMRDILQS
Text: In addition, the weak binding by the DBP was indicative of more rapid clearance, allowing for low toxicity.

[4] = target: T2, vitamin D receptor (VDR) (Homo sapiens, UniProt P11473); assay: Vitamin D-dependent transcriptional activation: growth hormone production in COS-1 cells co-transfected with VDR plasmid and VDRE-GH reporter; format: cell-based; conditions: for Total GH Production: averages of duplicate determinations
T2 sequence (P11473 1-427): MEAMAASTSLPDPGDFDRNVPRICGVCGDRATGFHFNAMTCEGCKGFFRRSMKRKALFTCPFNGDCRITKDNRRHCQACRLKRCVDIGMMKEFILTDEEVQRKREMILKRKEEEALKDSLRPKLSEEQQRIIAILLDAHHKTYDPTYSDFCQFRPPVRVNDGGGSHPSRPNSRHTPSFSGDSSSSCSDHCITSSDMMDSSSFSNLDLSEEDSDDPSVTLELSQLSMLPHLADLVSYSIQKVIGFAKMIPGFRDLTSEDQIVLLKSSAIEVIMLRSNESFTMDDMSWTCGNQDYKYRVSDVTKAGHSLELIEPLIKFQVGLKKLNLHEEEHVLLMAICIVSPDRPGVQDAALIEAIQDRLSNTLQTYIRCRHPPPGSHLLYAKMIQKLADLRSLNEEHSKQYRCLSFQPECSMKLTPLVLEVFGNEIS
Procedure: The biological activity in vitro of chemically synthesized 1α,24(S)-(OH)2 D2 and 1α,24(R)-(OH)2 D2 was measured using a vitamin D-dependent transcriptional activation model system in which a vitamin D receptor (VDR)-expressing plasmid pSG5-hVDR1/3and a plasmid p(CT4)^4 TKGH containing a Growth Hormone (GH)-gene, under the control of a vitamin D-responsive element (VDRE) were co-transfected into Green monkey kidney, COS-1 cells. DNA's for these two vectors were supplied by Dr. Mark Haussler, Department of Biochemistry, University of Arizona, Tucson, Ariz.
Transfected cells were incubated with vitamin D metabolites and growth hormone production was measured.

[5] = Preventive treatment of bone mass loss in postmenopausal osteoporotic women; format: in vivo, human; conditions: at or above 1.0 μg/day, 24 to 36 months
Procedure: A clinical study is conducted with postmenopausal osteoporotic out-patientshaving ages between 55 and 75 years. The study involves up to 120 patients randomly divided into three treatment groups and continues for 24 to 36 months. Two of the treatment groups receive constant dosages of 1α,24(S)-dihydroxy vitamin D2 (u.i.d.; two different dose levels at or above 1.0 μg/day) and the other group receives a matching placebo. All patients maintain a normal intake of dietary calcium (500 to 800 mg/day) and refrain from using calcium supplements. Efficacy is evaluated by pre-and post-treatment comparisons of the patient groups with regard to (a) total body calcium retention, and (b) radial and spinal bone mineral density as determined by dual-photon absorptiometry (DPA) or dual-energy x-ray absorptiometry (DEXA). Safety is evaluated by comparisons of urinary hydroxyproline excretion, serum and urine calcium levels, creatinine clearance, blood urea nitrogen, and other routine determinations.

[6] = tested on: human cancer cell lines BCA-1 or ZR-75-1 (breast) and COL-1 (colon); assay: Antiproliferative activity in human cancer cell lines (thymidine incorporation); format: cell-based; conditions: dose-response in breast and colon cancer cell lines
Procedure: Dose-response studies are conducted with 1α,24(S)-(OH)2 D2 in a battery of human cancer cell lines. These cell lines include, but are not limited to, the following: BCA-1 or ZR-75-1 (breast) and COL-1 (colon), as described by Shieh, H. L. et al. Chem. Biol. Interact., vol. 81, pp. 35-55 (1982). In this study, appropriate solvents are used as negative controls.

[7] = inducer molar concentration 5 × 10^-8
[8] = inducer molar concentration 5 × 10^-9
[9] = inducer molar concentration 5 × 10^-10

Routinely monitored serum parameters [1]: no effect
Binding to the vitamin D serum binding protein relative to 1,25-(OH)2 D3 ([3]; compared with 1,25-(OH)2 D3): more weakly
Binding affinity for the vitamin D serum binding protein ([3]; in words): relatively poor binding affinity
Activity in the transcriptional activation system relative to 1α,24(R)-(OH)2 D2 ([4]; compared with the 24(R) epimer): significantly more activity
Net vitamin D-inducible GH-production [4, 7]: 1138 ng/mL
Total GH Production [4, 7]: 1182 ng/mL
Net vitamin D-inducible GH-production [4, 8]: 1306 ng/mL
Total GH Production [4, 8]: 1350 ng/mL
Net vitamin D-inducible GH-production [4, 9]: 381 ng/mL
Total GH Production [4, 9]: 425 ng/mL
SMILES: C=C1/C(=C\C=C2/CCC[C@]3(C)[C@@H]([C@H](C)/C=C/[C@@](C)(O)C(C)C)CC[C@@H]23)C[C@@H](O)C[C@@H]1O [1α,24(S)-(OH)2 D2, 1α,24(S)-dihydroxy vitamin D2]
24-hour urinary calcium levels [1]: modest increases
Serum osteocalcin levels [1]: increases
Losses in total body calcium, radial or spinal bone densities relative to baseline ([2]; at or above 1.0 μg/day, 24 to 36 months): reduced losses
Monitored safety parameters ([2]; long-term administration at or above 1.0 μg/day): confirm the safety
Incidence of hypercalcemia or hypercalciuria or other metabolic disturbance [5]: insignificant incidence
Total body calcium, radial and spinal bone densities relative to placebo [5]: significantly higher
Antiproliferative activity (inhibition of thymidine incorporation) [6]: potent (and reversible) antiproliferative activity
